Among the data in patent publication US8563730B2, “Pyrazole and fused pyrazole glucokinase activators” (Takeda San Diego, Inc., priority 2008, dated 2013) are EC50 and Emax values, retold here.

The experiment concerns the target T1, GK (glucokinase, residues 12-465) (Homo sapiens, UniProt P35557).
T1 construct: I.D. No. 1 corresponds to residues 12-465 of glucokinase; made in house; host or cells: DH10b-T1r E. coli
T1 sequence (P35557 with tags, fused parts or gaps isoform P35557-2): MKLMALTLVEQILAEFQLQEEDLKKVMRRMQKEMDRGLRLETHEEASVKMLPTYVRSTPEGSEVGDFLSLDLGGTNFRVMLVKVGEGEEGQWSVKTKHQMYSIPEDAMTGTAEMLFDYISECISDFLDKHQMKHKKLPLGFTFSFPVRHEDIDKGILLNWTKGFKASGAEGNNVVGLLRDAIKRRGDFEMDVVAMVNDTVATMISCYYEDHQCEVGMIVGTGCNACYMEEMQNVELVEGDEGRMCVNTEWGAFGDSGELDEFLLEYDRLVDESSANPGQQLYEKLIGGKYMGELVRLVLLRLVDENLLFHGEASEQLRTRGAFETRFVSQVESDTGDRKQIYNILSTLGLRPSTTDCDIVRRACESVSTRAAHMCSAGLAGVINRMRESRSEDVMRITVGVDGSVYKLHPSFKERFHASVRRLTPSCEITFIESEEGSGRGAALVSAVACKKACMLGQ
The experiment can be described thus: enzymatic glucokinase activity assay (ATP consumption, KinaseGlo luminescence). The settings on record: 5 μM ATP, 5 mM Glucose, reported as bins; for EC50: Kact = concentration that displays 50% of the maximal increase in GK activity, 60 min, room temperature, read-out: pKact. In kind it is biochemical. The source says:
The activity of compounds as glucokinase activators may be assayed in vitro, in vivo or in a cell line. Provided below is an enzymatic glucokinase activity assay.
Purified glucokinase may be obtained as follows. […] SEQ.
The expression of recombinant glucokinase protein may be carried out by transformation and growth of DH10b-T1r E. coli cells incorporating the (pFLAG-CTC) plasmid in LB media. Protein expression can be induced in this system by the addition of IPTG to the culture medium.
Recombinant protein may be isolated from cellular extracts by passage over Sepharose Q Fast Flow resin (Pharmacia). This partially purified GK extract may then be further purified by a second passage over Poros HQ10 (Applied Biosystems). The purity of GK may be determined on denaturing SDS-PAGE gel. Purified GK may then be concentrated to a final concentration of 20.0 mg/ml. After flash freezing in liquid nitrogen, the proteins can be stored at −78° C. in a buffer containing 25 mM TRIS-HCl pH 7.6, 50 mM NaCl, and 0.5 mM TCEP.
The activation properties of compounds for GK may be determined using a black 384-well-plate format under the following reaction conditions: 25 mM Hepes pH 7.2, 25 mM NaCl, 10 mM MgCl2, 0.01% Brij35, 1 mM DTT, 5 μM ATP, 5 mM Glucose 2% DMSO. The amount of ATP consumed may be determined quantitatively by addition of equal volume of luciferase reagent (luciferase+beetle luciferin—KinaseGlo Luminescent Kinase Assay kit from Promega). The luminescence intensity may be measured by using the Analyst HT from LJL Biosystems.
The reaction mixture may then be incubated at room temperature for 60 min, and quenched and developed by addition of 10 μL of luciferase reagent. Luminescence intensities of the resulting reaction mixtures may be measured after a 10 min incubation at room temperature. The luminescence intensity may be measured by using the Analyst HT from LJL Biosystems.
pKact and % ACTmax values may be calculated by non-linear curve fitting of the compound concentrations and luminescence intensities to a standard inhibition/activation equation.
(Kinase-Glo measures the ATP left after a reaction by luminescence.)

The mark [1] stands for this setting: calculated maximal gain in GK enzyme activity at a saturating concentration of the compound, read-out: % ACTmax.
Setting [2] is: read-out: % ACTmax, calculated maximal gain in GK enzyme activity at a saturating concentration of the compound.

Where two headings read alike, the source gives them in different places.

Turning to `Cn1ccc(NC(=O)[C@H](CC2CCOCC2)n2ncc3c(S(=O)(=O)C4CC4)c(F)ccc32)n1` [Compound 165, (S)-2-(4-(cyclopropylsulfonyl)-5-fluoro-1H-indazol-1-yl)-N-(1-methyl-1H-pyrazol-3-yl)-3-(tetrahydro-2H-pyran-4-yl)propanamide], the EC50 was ≤ 0.316 µM. Under setting [1], the Emax was 90 to 100%.

Take `COc1ccc2nc(NC(=O)[C@@H](CC3CCOCC3)n3ccc(S(=O)(=O)C4CC4)n3)sc2n1` [Compound 3, (R)-2-(3-(cyclopropylsulfonyl)-1H-pyrazol-1-yl)-N-(5-methoxythiazolo[5,4-b]pyridin-2-yl)-3-(tetrahydro-2H-pyran-4-yl)propanamide]: the EC50 is ≥ 15.8 µM. Moreover, the Emax under setting [1] is ≤ 90%.

Consider `CC(C)(C)S(=O)(=O)c1cnn([C@H](CC2CCOCC2)C(=O)Nc2ncc(F)s2)c1` [Compound 52, (R)-2-(4-(tert-butylsulfonyl)-1H-pyrazol-1-yl)-N-(5-fluorothiazol-2-yl)-3-(tetrahydro-2H-pyran-4-yl)propanamide], for which the EC50 is ≥ 15.8 µM. Besides, the Emax under setting [1] is 90 to 100%.

Consider `COc1cc(S(=O)(=O)C2CC2)c2cnn(C(CC3CCOCC3)C(=O)Nc3ccn(C)n3)c2c1` (stereo not shown) [Compound 83, 2-(4-(cyclopropylsulfonyl)-6-methoxy-1H-indazol-1-yl)-N-(1-methyl-1H-pyrazol-3-yl)-3-(tetrahydro-2H-pyran-4-yl)propanamide], for which the EC50 is 3.98 to 12.6 µM. Moreover, the Emax under setting [1] was ≤ 90%.

With `Cn1ccc(NC(=O)C(CC2CCOCC2)n2ncc3c(S(=O)(=O)C4CC4)cc(F)cc32)n1` (stereo not shown) [Compound 104, 2-(4-(cyclopropylsulfonyl)-6-fluoro-1H-indazol-1-yl)-N-(1-methyl-1H-pyrazol-3-yl)-3-(tetrahydro-2H-pyran-4-yl)propanamide], the EC50 lay in the range of 1.58 to 3.16 µM. Besides, the Emax under setting [1] is 90 to 100%.

In the case of `CC(C)(C)S(=O)(=O)c1cnn(C(CC2CCOCC2)C(=O)Nc2ncc(F)s2)c1` (stereo not shown) [Compound 49, 2-(4-(tert-butylsulfonyl)-1H-pyrazol-1-yl)-N-(5-fluorothiazol-2-yl)-3-(tetrahydro-2H-pyran-4-yl)propanamide], the EC50 was 3.98 to 12.6 µM. Besides, under setting [1], the Emax was 90 to 100%.

For the molecule `O=C(Nc1ncc(Cl)s1)[C@@H](CC1CCOCC1)n1cc(S(=O)(=O)C2CCCC2)cn1` [Compound 58, (R)-N-(5-chlorothiazol-2-yl)-2-(4-(cyclopentylsulfonyl)-1H-pyrazol-1-yl)-3-(tetrahydro-2H-pyran-4-yl)propanamide], the EC50 is ≥ 15.8 µM. The Emax under setting [1] was 101 to 105%.

As to `Nc1cc(S(=O)(=O)C2CC2)c2cnn(C(CC3CCOCC3)C(=O)Nc3ncc(F)s3)c2n1` (stereo not shown) [Compound 16, 2-(6-amino-4-(cyclopropylsulfonyl)-1H-pyrazolo[3,4-b]pyridin-1-yl)-N-(5-fluorothiazol-2-yl)-3-(tetrahydro-2H-pyran-4-yl)propanamide], the EC50 was ≤ 0.316 µM. Further, under setting [2], the Emax is 106 to 110%.

Consider `COc1ccc2c(cnn2C(CC2CCOCC2)C(=O)Nc2ncc(F)s2)c1S(=O)(=O)C1CC1` (stereo not shown) [Compound 80, 2-(4-(cyclopropylsulfonyl)-5-methoxy-1H-indazol-1-yl)-N-(5-fluorothiazol-2-yl)-3-(tetrahydro-2H-pyran-4-yl)propanamide], for which the EC50 was ≤ 0.316 µM. The Emax under setting [1] is 101 to 105%.

Regarding `Cc1cc(S(=O)(=O)C2CC2)c2cnn(C(CC3CCOCC3)C(=O)Nc3ncc(F)s3)c2c1` (stereo not shown) [Compound 122, 2-(4-(cyclopropylsulfonyl)-6-methyl-1H-indazol-1-yl)-N-(5-fluorothiazol-2-yl)-3-(tetrahydro-2H-pyran-4-yl)propanamide], the EC50 lay within 3.98 to 12.6 µM. Also, the Emax under setting [1] was ≥ 111%.

As to `O=C(Nc1cccc(F)n1)C(CC1CCOCC1)n1ncc2c(S(=O)(=O)C3CC3)cccc21` (stereo not shown) [Compound 147, 2-(4-(cyclopropylsulfonyl)-1H-indazol-1-yl)-N-(6-fluoropyridin-2-yl)-3-(tetrahydro-2H-pyran-4-yl)propanamide], the EC50 was 1.58 to 3.16 µM. Besides, the Emax under setting [1] was ≥ 111%.

Take `NC(=O)c1ccc(NC(=O)[C@@H](CC2CCOCC2)n2ncc3c(S(=O)(=O)C4CC4)cccc32)nc1` [Compound 108, (R)-6-(2-(4-(cyclopropylsulfonyl)-1H-indazol-1-yl)-3-(tetrahydro-2H-pyran-4-yl)propanamido)nicotinamide]: the EC50 lay in the range of 3.98 to 12.6 µM. The Emax under setting [2] is ≥ 111%.

As for `Cn1ccc(NC(=O)C(CC2CCOCC2)n2ncc3c(S(=O)(=O)C4CC4)cc(C#N)cc32)n1` (stereo not shown) [Compound 19, 2-(6-cyano-4-(cyclopropylsulfonyl)-1H-indazol-1-yl)-N-(1-methyl-1H-pyrazol-3-yl)-3-(tetrahydro-2H-pyran-4-yl) propanamide], the EC50 was ≤ 0.316 µM. Moreover, under setting [1], the Emax was ≤ 90%.

For the molecule `Nc1cc(S(=O)(=O)C2CC2)c2cnn(C(CC3CCOCC3)C(=O)Nc3ncc(F)s3)c2c1` (stereo not shown) [Compound 142, 2-(6-amino-4-(cyclopropylsulfonyl)-1H-indazol-1-yl)-N-(5-fluorothiazol-2-yl)-3-(tetrahydro-2H-pyran-4-yl)propanamide], the EC50 was ≤ 0.316 µM. Under setting [1], the Emax was 101 to 105%.

For the molecule `O=C(Nc1ncc(Cl)s1)C(CC1CCOCC1)n1cc2c(S(=O)(=O)C3CC3)cccc2n1` (stereo not shown) [Compound 70, N-(5-chlorothiazol-2-yl)-2-(4-(cyclopropylsulfonyl)-2H-indazol-2-yl)-3-(tetrahydro-2H-pyran-4-yl)propanamide], the EC50 lay within 1.58 to 3.16 µM. Also, the Emax under setting [1] is 101 to 105%.

As to `N#Cc1cccnc1NC(=O)C(CC1CCOCC1)n1ncc2c(S(=O)(=O)C3CC3)cccc21` (stereo not shown) [Compound 86, N-(3-cyanopyridin-2-yl)-2-(4-(cyclopropylsulfonyl)-1H-indazol-1-yl)-3-(tetrahydro-2H-pyran-4-yl)propanamide], the EC50 was ≥ 15.8 µM. Further, the Emax under setting [1] is ≤ 90%.

As to `O=C(Nc1ncc(F)s1)[C@@H](CC1CCOCC1)n1ncc2c(S(=O)(=O)C3CC3)cccc21` [Compound 68, (R)-2-(4-(cyclopropylsulfonyl)-1H-indazol-1-yl)-N-(5-fluorothiazol-2-yl)-3-(tetrahydro-2H-pyran-4-yl)propanamide], the EC50 lay in the range of 3.98 to 12.6 µM. Under setting [1], the Emax was 101 to 105%.

With `O=C(Nc1ncc(Cl)s1)[C@@H](CC1CCOCC1)n1ncc2c(S(=O)(=O)C3CC3)cccc21` [Compound 63, (R)-N-(5-chlorothiazol-2-yl)-2-(4-(cyclopropylsulfonyl)-1H-indazol-1-yl)-3-(tetrahydro-2H-pyran-4-yl)propanamide], the EC50 was in the range of 3.98 to 12.6 µM. The Emax under setting [1] is ≥ 111%.

Take `Cn1ccc(NC(=O)[C@H](CC2CCOCC2)n2ncc3c(S(=O)(=O)C4CC4)ccnc32)n1` [Compound 98, (S)-2-(4-(cyclopropylsulfonyl)-1H-pyrazolo[3,4-b]pyridin-1-yl)-N-(1-methyl-1H-pyrazol-3-yl)-3-(tetrahydro-2H-pyran-4-yl)propanamide]: the EC50 fell in the range of 0.398 to 1.26 µM. The Emax under setting [1] is 90 to 100%.

Consider `O=C(Nc1ncc(F)s1)[C@H](CC1CCOCC1)n1ncc2c(S(=O)(=O)C3CC3)ccnc21` [Compound 138, (S)-2-(4-(cyclopropylsulfonyl)-1H-pyrazol[3,4-b]pyridin-1-yl)-N-(5-fluorothiazol-2-yl)-3-(tetrahydro-2H-pyran-4-yl)propanamide], for which the EC50 is 0.398 to 1.26 µM. Further, the Emax under setting [1] is 90 to 100%.
